# Positions of bridges follow the written chain, without caps; N, C: chain ends. Non-standard residues stand in square brackets, D forms with d. Residues, ends and D or L forms follow the SMILES beside them. *: point of attachment. Decanoyl(3R-OH) = CCCCCCC[C@@H](O)CC(=O)*; dPhe(4-F) = N[C@H](Cc1ccc(F)cc1)C(=O)O; 2Nal = N[C@@H](Cc1ccc2ccccc2c1)C(=O)O; d2Nal = N[C@H](Cc1ccc2ccccc2c1)C(=O)O; dIgl = N[C@@H](C(=O)O)C1Cc2ccccc2C1; d(hPhe) = N[C@H](CCc1ccccc1)C(=O)O; dDab = NCC[C@@H](N)C(=O)O; Dab = NCC[C@H](N)C(=O)O
# Legend:
# [1] = test system: A. baumannii ATCC 19606; settings: ATCC 19606
# In short: (§1)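 Mid-log cultures grown in Mueller Hinton broth at 37° C were tested by 2-fold broth microdilution at 5×10^5 CFU/mL final. Compounds were dissolved in water and tested over a final range of 32 to 0.015 μg/mL.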
# [2] = test system: A. baumannii GN_093 PmxR; settings: GN 093 PmxR
# In short: as §1
# [3] = test system: E. coli ATCC 25922; settings: ATCC 25922
# In short: as §1
# [4] = test system: K. pneumoniae ATCC 13883; settings: ATCC 13883
# In short: as §1
# [5] = test system: K. pneumoniae ATCC 700603, MDR; settings: ATCC 700603
# In short: as §1
# [6] = test system: K. pneumoniae ATCC BAA-2146, NDM-1 pos; settings: ATCC BAA-2146
# In short: as §1
# [7] = test system: K. pneumoniae GN_102 PmxR; settings: GN 102 PmxR
# In short: as §1
# [8] = test system: K. pneumoniae GN_106, PmxR; settings: GN 106, PmxR
# In short: as §1
# [9] = test system: P. aeruginosa ATCC 27853; settings: ATCC 27853
# In short: as §1
# [10] = test system: P. aeruginosa GN_043, PmxR; settings: polymyxin-resistant
# In short: as §1
# [11] = test system: P. aeruginosa GN_105, PmxR; settings: GN 105, PmxR
# In short: as §1
# [12] = test system: S. aureus ATCC 25923, MSSA; settings: ATCC 25923
# In short: as §1
# [13] = in vitro; settings: human
# In short: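 Cells were seeded at 4000 per well and allowed to attach for 24 h at 37 °C, 5% CO2, then exposed to compounds for 24 h. Resazurin (5 μM) was added for 2 h at 37 °C and fluorescence read at 560/590 nm. CC50 was derived by curve fitting of dose-dependent growth inhibition.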
SMILES,MIC A. baumannii ATCC 19606 [1],MIC A. baumannii GN_093 PmxR [2],MIC E. coli ATCC 25922 [3],MIC K. pneumoniae ATCC 13883 [4],"MIC K. pneumoniae ATCC 700603, MDR [5]","MIC K. pneumoniae ATCC BAA-2146, NDM-1 pos [6]",MIC K. pneumoniae GN_102 PmxR [7],"MIC K. pneumoniae GN_106, PmxR [8]",MIC P. aeruginosa ATCC 27853 [9],"MIC P. aeruginosa GN_043, PmxR [10]","MIC P. aeruginosa GN_105, PmxR [11]","MIC S. aureus ATCC 25923, MSSA [12]",CC50 at 24 h [13]
"CCCCCCC[C@@H](O)CC(=O)N[C@H](CCN)C(=O)N[C@H]1CCNC(=O)[C@H](Cc2c[nH]c3ccccc23)NC(=O)[C@H](CCN)NC(=O)[C@H](CCN)NC(=O)[C@H](CC(C)C)NC(=O)[C@@H](Cc2ccc3ccccc3c2)NC(=O)[C@H](CCN)NC1=O [compound 8113, 3(R)OH-nC9CO-D-Dab-cyc[L-Dab-L-Dab-L-Dab-D-Ala(2-Na)-L-Leu-L-Dab-L-Dab-L-Trp]] ({Decanoyl(3R-OH)}-[dDab][Dab][Dab][d2Nal]L[Dab][Dab]W; lactam 2-C)",8 µg/mL,8 µg/mL,8 µg/mL,4 µg/mL,8 µg/mL,8 µg/mL,8 µg/mL,8 µg/mL,8 µg/mL,4 µg/mL,4 µg/mL,4 µg/mL,28 µM
"CCCCCCC[C@@H](O)CC(=O)N[C@H](CCN)C(=O)N[C@H]1CCNC(=O)[C@H](Cc2c[nH]c3ccccc23)NC(=O)[C@H](CCN)NC(=O)[C@H](CCN)NC(=O)[C@H](CC(C)C)NC(=O)[C@@H](Cc2ccc(F)cc2)NC(=O)[C@H](CCN)NC1=O [compound 8119, 3(R)OH-nC9CO-D-Dab-cyc[L-Dab-L-Dab-L-Dab-D-Phe(4-F)-L-Leu-L-Dab-L-Dab-L-Trp]] ({Decanoyl(3R-OH)}-[dDab][Dab][Dab][dPhe(4-F)]L[Dab][Dab]W; lactam 2-C)",8 µg/mL,8 µg/mL,8 µg/mL,4 µg/mL,8 µg/mL,4 µg/mL,4 µg/mL,4 µg/mL,4 µg/mL,2 µg/mL,2 µg/mL,16 µg/mL,64 µM
"CCCCCCC[C@@H](O)CC(=O)N[C@H](CCN)C(=O)N[C@H]1CCNC(=O)[C@H](Cc2c[nH]c3ccccc23)NC(=O)[C@H](CCN)NC(=O)[C@H](CCN)NC(=O)[C@H](CC(C)C)NC(=O)[C@@H](Cc2c[nH]c3ccccc23)NC(=O)[C@H](CCN)NC1=O [compound 8127, 3(R)OH-nC9CO-D-Dab-cyc[L-Dab-L-Dab-L-Dab-D-Trp-L-Leu-L-Dab-L-Dab-L-Trp]] ({Decanoyl(3R-OH)}-[dDab][Dab][Dab][dW]L[Dab][Dab]W; lactam 2-C)",16 µg/mL,32 µg/mL,2 µg/mL,16 µg/mL,4 µg/mL,4 µg/mL,16 µg/mL,4 µg/mL,2 µg/mL,2 µg/mL,2 µg/mL,4 µg/mL,63 µM
"CCCCCCC[C@@H](O)CC(=O)N[C@H](CCN)C(=O)N[C@H]1CCNC(=O)[C@H](Cc2c[nH]c3ccccc23)NC(=O)[C@H](CCN)NC(=O)[C@H](CCN)NC(=O)[C@H](CC(C)C)NC(=O)[C@@H](CCc2ccccc2)NC(=O)[C@H](CCN)NC1=O [compound 8129, 3(R)OH-nC9CO-D-Dab-cyc[L-Dab-L-Dab-L-Dab-D-hPhe-L-Leu-L-Dab-L-Dab-L-Trp]] ({Decanoyl(3R-OH)}-[dDab][Dab][Dab][d(hPhe)]L[Dab][Dab]W; lactam 2-C)",4 µg/mL,4 µg/mL,2 µg/mL,4 µg/mL,4 µg/mL,4 µg/mL,4 µg/mL,4 µg/mL,2 µg/mL,4 µg/mL,2 µg/mL,2 µg/mL,37 µM
"CCCCCCC[C@@H](O)CC(=O)N[C@H](CCN)C(=O)N[C@H]1CCNC(=O)[C@H](Cc2c[nH]c3ccccc23)NC(=O)[C@H](CCN)NC(=O)[C@H](CCN)NC(=O)[C@H](CC(C)C)NC(=O)[C@@H](C2Cc3ccccc3C2)NC(=O)[C@H](CCN)NC1=O [compound 8826, nC10-3(R)OH-D-Dab-cyc[L-Dab-L-Dab-D-indanylgyl-L-Leu-L-Dab-L-Dab-L-Trp]] ({Decanoyl(3R-OH)}-[dDab][Dab][Dab][dIgl]L[Dab][Dab]W; lactam 2-C)",8 µg/mL,8 µg/mL,8 µg/mL,8 µg/mL,8 µg/mL,4 µg/mL,8 µg/mL,8 µg/mL,4 µg/mL,4 µg/mL,4 µg/mL,4 µg/mL,38 µM
"CCCCCCC[C@@H](O)CC(=O)N[C@H](CCN)C(=O)N[C@H]1CCNC(=O)[C@H](Cc2c[nH]c3ccccc23)NC(=O)[C@H](CCN)NC(=O)[C@H](CCN)NC(=O)[C@H](Cc2ccc3ccccc3c2)NC(=O)[C@@H](Cc2ccccc2)NC(=O)[C@H](CCN)NC1=O [compound 8832, nC10-3(R)OH-D-Dab-cyc[L-Dab-L-Dab-D-Phe-L-2-NaphthylAla-L-Dab-L-Dab-L-Trp]] ({Decanoyl(3R-OH)}-[dDab][Dab][Dab][dF][2Nal][Dab][Dab]W; lactam 2-C)",8 µg/mL,16 µg/mL,8 µg/mL,16 µg/mL,8 µg/mL,8 µg/mL,16 µg/mL,8 µg/mL,4 µg/mL,4 µg/mL,8 µg/mL,4 µg/mL,26 µM
"CCCCCCC[C@@H](O)CC(=O)N[C@H](CCCNC(=N)N)C(=O)N[C@H]1CCNC(=O)[C@H](Cc2c[nH]c3ccccc23)NC(=O)[C@H](CCN)NC(=O)[C@H](CCN)NC(=O)[C@H](CC(C)C)NC(=O)[C@@H](Cc2ccccc2)NC(=O)[C@H](CCN)NC1=O [compound 8884, nC10-3(R)OH-D-Arg-cyc[L-Dab-L-Dab-D-Phe-L-Leu-L-Dab-L-Dab-L-Trp]] ({Decanoyl(3R-OH)}-[dR][Dab][Dab][dF]L[Dab][Dab]W; lactam 2-C)",32 µg/mL,32 µg/mL,4 µg/mL,16 µg/mL,4 µg/mL,8 µg/mL,32 µg/mL,16 µg/mL,4 µg/mL,4 µg/mL,16 µg/mL,16 µg/mL,73 µM
